In US20160228056A1, “DYNAMIC POSITRON EMISSION TOMOGRAPHY IMAGING” (THE GENERAL HOSPITAL CORPORATION, priority 2013, published 2016):
Entries after “also recorded” stand apart in the source; their conditions may differ.

Tests used:
cerebral blood flow = assay: non-human primate hypercapnia experiment with fPET-FDG and ASL CBF; format: in vivo, baboon
Description: To assess the influence of cerebral blood flow changes on FDG signal we administered inhaled carbon dioxide, a strong vasodilatory stimulus, to two baboons (2 females, ˜10-12 kg) simultaneously with fPET-FDG and arterial spin labeling (ASL) MRI for CBF measurements. The protocol was approved by the Institutional Animal Care and Use Committee. Animals were anesthetized with isoflurane (1%) and mechanically ventilated. Physiological parameters were continuously monitored and maintained within the normal range. All images were acquired on the same 3T Siemens TIM-Trio with a BrainPET insert as the human data, using a custom PET-compatible 8-channel array coil. Similar to the human protocol, ˜5 mCi of FDG was continuously infused intravenously at a rate of 0.01 mL/sec for each study. PET data were stored in list mode and binned into 1-minute frames. Dual echo pseudo-continuous arterial spin labeling (pCASL) data were acquired simultaneously (TR/TE1/TE2=4000/12/30 ms, 2.2×2.2×4 mm) (Wey et al., 2010). During a 50 minute dynamic fPET/fMRI scan, a hypercapnic challenge (7% CO2) was given for 10 minutes between 30 and 40 minutes. All data were motion and slice-time corrected, skull stripped, spatially smoothed and registered to a standard NHP atlas. Percent changes in gray matter CBF were calculated.

[1] = blood radioactivity during the FDG infusion protocol; format: in vivo, human; settings: constant infusion
Method: FDG was administered in saline intravenously at a constant infusion rate of 0.01 ml/s for 90 minutes to healthy subjects (1 female/2 males, mean age 32±2) using a Medrad® Spectra Solaris syringe pump. In a separate experiment, FDG was administered as a traditional bolus injection (5 mCi administered in 5 mL saline over ˜30 seconds) during rest for 3 additional healthy subjects (1 female/2 males, mean age 29±3). Venous blood samples were collected in all subjects during scanning, then centrifuged to obtain plasma, and aliquoted in a gamma counter that had been precalibrated to the PET scanner to measure the venous activity during the experiment. The fPET-FDG data were binned into 90 one-minute frames. The reconstructed volume was down-sampled to 76 slices with 128×128 voxels (2.5×2.5×2.5 mm^3) with one minute time frames. For bolus FDG comparison studies, data were processed as a single frame (40-70 minutes post injection) and analogously down-sampled. Standardized Uptake Values (SUVs) were normalized to gray matter uptake for each subject.
FDG in saline solution was administered intravenously at a constant infusion rate of 0.01 ml/s for 90 min to healthy subjects (1 female/2 males, mean age 32±2 years) using a Medrad® Spectra Solaris syringe pump (initial activity=5±0.6 mCi). […]

glucose utilization = assay: fPET-FDG constant infusion with checkerboard visual stimulation; format: in vivo, human; settings: for mean percent increase in glucose utilization derived from fPET-FDG: fixed-effect group analysis, three subjects
Method: To interrogate dynamic metabolic information, a 90-minute constant FDG infusion paradigm was used (0.01 ml/s, 5 mCi total calculated to the beginning of infusion), during which we periodically presented a conventional visual stimulus consisting of an 8-Hz counterphase flickering “checkerboard” pattern as shown in FIG. 2A. The stimulus was projected on a screen mounted at the end of the magnet bore, and subjects (n=3) viewed the stimulus through a mirror. We used three different stimuli: two full-field checkerboard stimulus periods for a duration of 10 minutes each, and two hemi-field checkerboard stimulus periods (right and left) for a duration of 5 minutes each (FIG. 2A). This design allowed us to confirm that the observed metabolic signal changes were specific to the stimuli, and also that multiple stimuli (four in this case) can be measured dynamically during a single scan of a single subject. In addition to our dynamic analysis, the fPET-FDG data were also binned into 90 one-minute frames using previously published methods (see, Catana et al., J Nucl Med 51, 1431, September, 2010; and Catana et al., J Nucl Med 52, 154, January 2011). During the fPET-FDG scan, functional MR data were simultaneously collected using a Siemens BrainPET scanner. BOLD data were collected prior to and during the first 10 minute full-field checkerboard and the two hemi-field checkerboard stimuli; and ASL data were collected prior to and during the second 10 minute full-field checkerboard stimulus.
FDG was delivered at a constant rate during our fPET studies. At steady state, the rate of FDG utilization in a given voxel is proportional to the slope of the radioactivity accumulated in that voxel. As shown in Example 1 below, during steady state the slope of the voxelwise FDG uptake from fPET can be represented as: slope=(CMRglu*LC*Cp)/Ca^o where LC is the lumped constant which converts FDG metabolic rate to glucose metabolic rate, Ca^o is a measurement of plasma glucose (see, Reivich et al., Circ Res 44, 127, January 1979; and Phelps et al., Ann Neurol 6, 371, November 1979), and Cp is the plasma radioactivity concentration (which is controlled through constant infusion). The slope is an approximation for (K1k3)/(k2+k3) scaled by Cp and is thus analogous to Ki (the influx rate constant) determined by a linear approximation of a bolus FDG injection by Patlak analysis (see, Patlak et al., J Cereb Blood Flow Metab 3, 1, Mar. 1983; and Lucignani et al., J Nucl Med 34, 360, March 1993). Changes in slope are thus proportional to changes in CMRglu. By taking the derivative of the fPET-FDG uptake time course estimated using pairwise subtraction of the 90 one minute frames to form a relative index of uptake rate, we generated a time series akin to a BOLD fMRI signal to represent change in CMRglu. We then used fMRI software, FSL's (FMRIB Software Library) FEAT (see Jenkinson et al., Neuroimage 62, 782, Aug. 15, 2012) to process the fPET-FDG data using a generalized linear model (GLM) with 3 different explanatory variables (EV): (i) 2 blocks of the 10 minutes full-field checkerboard paradigm (EV1), (ii) a 5 minute block of left hemi-field checkerboard (EV2) and (iii) a 5 minute block of right hemi-field checkerboard (EV3). Confirmation of functional specificity is inherent in our analyses given that both hemispheres of the visual system respond equally to the full-field checkerboard whereas the contralateral hemisphere has a higher response to a hemi-field checkerboard. […]

[2] = cited from earlier work; for K1 (rate constant, transport from blood to brain) / k2 (rate constant, transport back from brain to blood) / k3 (rate constant, phosphorylation in the brain tissue): two-tissue compartment model (Reivich et al., 1985)
[3] = 10 minute full checkerboard, average of 3 subjects, exponential fit

Compound | CBF increase on average (cerebral blood flow; gray matter, ASL, 10 minutes of hypercapnia (7% CO2), anesthetized baboon) | effect on FDG uptake rate / FDG signal slope (cerebral blood flow; hypercapnia (7% CO2) between 30 and 40 minutes of 50 minute FDG infusion, baboon) | CBF change at maximum (cerebral blood flow; hypercapnia stimulus (7% CO2), baboon) | blood radioactivity during the infusion protocol, maximum ([1]; venous plasma blood) | blood radioactivity during the infusion protocol, average ([1]; whole blood) | tau of the exponential decrease in FDG signal after the end of the activation (glucose utilization; [3]) | tau of the exponential increase in FDG signal after the beginning of the activation (glucose utilization; [3]) | mean percent increase in glucose utilization derived from fPET-FDG (glucose utilization; full-field checkerboard vs baseline) | mean percent increase in glucose utilization derived from fPET-FDG (glucose utilization; left hemi-field checkerboard vs baseline) | mean percent increase in glucose utilization derived from fPET-FDG (glucose utilization; right hemi-field checkerboard vs baseline) | extraction fraction ([2]; brain) | K1 (rate constant, transport from blood to brain) [2] | k2 (rate constant, transport back from brain to blood) [2] | k3 (rate constant, phosphorylation in the brain tissue) [2]
O=C=O [carbon dioxide] | 70% | did not alter FDG uptake rate; also recorded: did not induce any measurable change | 120% | – | – | – | – | – | – | – | – | – | – | –
2-[^18F]-fluoro-2-deoxyglucose [FDG] | – | – | – | 4 kBq/cc | 4 kBq/cc | 5.6 min | 4.9 min | 25% | 26% | 28% | 4% | 0.1 mL/min | 0.15 min⁻¹ | 0.08 min⁻¹
OCC1OC(O)CC(O)C1O (centres unmarked) [deoxyglucose] | – | – | – | – | – | – | – | – | – | – | – | ~0.1 mL/min | ~0.15 min⁻¹ | ~0.08 min⁻¹
